According to US10094834B2, “Method of selecting individualized brain cancer therapy” (TURUN YLIOPISTO, priority 2012, dated 2018):
“Also recorded” adds a separate entry of the source.

Key:
Type in all cases: cell-based, human
T98G glioblastoma cells [1] = assay: Apoptosis assay by sub-G0/G1 fraction estimation (nuclear fragmentation, PI/FACS); settings: for apoptotic nuclear fragmentation (sub-G0/G1 fraction): T98G cells depleted of PME-1 (PME-1 siRNA 48 hrs), drug treatment 24 hrs; for effect on PME-1 siRNA and STS mediated apoptosis (nuclear fragmentation): T98G
Procedure: The percentage of the sub-G0/G1 fraction containing fragmented nuclei stained with Propidium iodide (PI) was taken as a measure of apoptotic cells. 3.5-4×10^4 cells were plated in 24-well plates, transfected with siRNA for 48 hrs, and then treated with indicated concentration of test compounds in fresh media. After 24 hrs of treatment, both floating and adherent cells were harvested by centrifugation. Cell pellets were resuspended in 400 μl of hypotonic PI buffer, containing 40 mM Tri-sodium citrate (Merck), 0.3% Triton X-100 (Sigma-Aldrich) and 50 μg/ml Propidium iodide (Sigma-Aldrich) in PBS, and incubated at room temperature for 10 minutes in dark. The flow cytometric analysis of PI stained nuclei was performed and the recorded data was analyzed using a FACScan flow cytometer and software (Becton Dickinson) respectively.
In experiments using pan-caspase inhibitor, cells were kept in growth media containing 30 μM Z-VAD-FMK starting from 18 hrs after transfection till the PI staining.
The T98G cells transfected with siRNA for 48 hrs were given drug treatments for 24 hrs and were subsequently lysed, and their nuclei were stained using hypotonic propidium iodide buffer. The lysates were analysed for changes in the sub-G0/G1 fraction of fragmented nuclei by flow cytometry (FACS) (FIG. 1B). Condensation and fragmentation of nucleus is a key biochemical feature of apoptosis and sub-G0/G1 analysis has been widely used for detection of apoptosis (FEBS Lett., 1986, 194(2):347-50; Cytometry, 1991, 12(4):323-329; Nature Protocols, 2006, 1:1458-1461).

[2] = test system: U251MG glioblastoma cells; assay: Colony formation assay, U251MG; settings: PME-1 depleted versus scrambled siRNA, 2 days of treatment
Text: (§1) Cells plated in very low density (4-6×10^3) in 6-well plates were allowed to grow for about 7 days until they form small colonies. These cells were then transfected with Scrambled or PME-1 siRNA using Lipofectamine RNAiMAX reagent (Invitrogen) according to the manufacturer's instructions. After 48 hrs, treatments were given with indicated concentration of chemical drugs for another 48 hrs. Cell colonies were washed with PBS, fixed with 3.7% formaldehyde and stained with 0.2% crystal violet solution (made in 10% ethanol) for 15 minutes at room temperature each. Excess stain was removed by repeated washings with PBS. Plates were dried and pictures were taken with Olympus SP-600UZ camera or Epson perfection […] scanner and analysed with ImageJ.

U87MG glioblastoma cells = assay: Colony formation assay, U87MG; settings: PME-1 depleted versus scrambled siRNA, 2 days of treatment
Text: as §1

T98G glioblastoma cells [3] = assay: Cell viability assay, CellTiter-glo (CTG)
Procedure: Cell viability was determined by CellTiter-glo (CTG) assay which measures the cellular ATP levels as an indicator of metabolically active and viable cells. CTG reagent kit was purchased from Promega Corp. and assays were performed according to their recommendations. Assays were performed in white polystyrene 96-well plates (Nunc, Thermo Fisher Scientific Inc.) and luminescence was measured with Perkin Elmer Victor2 Plate Reader.

[4] = test system: Caspase-3/7 in T98G cells; assay: Caspase-3 and -7 activity, Caspase-Glo 3/7 Assay
Procedure: Caspase-3 and -7 activity was measured by luminescence based method, which utilize a substrate containing Caspase-3 and -7 target peptide DEVD, named Caspase-Glo 3/7 Assay (Promega Corp.). Assays were performed in white polystyrene 96-well plates (Nunc, Thermo Fisher Scientific Inc.) according to manufacturer's instructions and luminescence was measured with Perkin Elmer Victor2 Plate Reader.

T98G glioblastoma cells [5] = assay: Colony formation assay, T98G
Text: (§2) Cells plated in very low density (4-6×10^3) in 6-well plates were allowed to grow for about 7 days until they form small colonies. These cells were then transfected with Scrambled or PME-1 siRNA using Lipofectamine RNAiMAX reagent (Invitrogen) according to the manufacturer's instructions. After 48 hrs, treatments were given with indicated concentration of chemical drugs for another 48 hrs. Cell colonies were washed with PBS, fixed with 3.7% formaldehyde and stained with 0.2% crystal violet solution (made in 10% ethanol) for 15 minutes at room temperature each. Excess stain was removed by repeated washings with PBS. Plates were dried and pictures were taken with Olympus SP-600UZ camera or Epson perfection V700 scanner and analysed with ImageJ.
(§3) Next, the effect of PME-1 expression on the sensitivity of glioblastoma cells to STS was tested by colony formation assay in T98G glioblastoma cells and another glioblastoma cell line U118MG. For this experiment, these cells were grown in 6-well plates until the formation of small colonies which were then transfected with Scrambled or PME-1 siRNA for 48 hrs followed by treatment with STS at the indicated concentrations for another 48 hrs. […] Similar results were obtained with both glioblastoma cell lines.

[6] = test system: U118MG glioblastoma cells; assay: Colony formation assay, U118MG
Text: as §2, §3

[7] = PME-1 siRNA 48 hrs then drug 48 hrs
[8] = scrambled siRNA (intact PME-1), drug 48 hrs

## COC(=O)[C@@]1(O)C[C@H]2O[C@]1(C)n1c3ccccc3c3c4c(c5c6ccccc6n2c5c31)C(=O)NC4 [K252a]
T98G glioblastoma cells [1]
  apoptotic nuclear fragmentation (sub-G0/G1 fraction): levels even higher than STS itself
[2]
  cell killing activity, colony formation: enhanced the cell killing activity
U87MG glioblastoma cells
  cell killing activity, colony formation: enhanced the cell killing activity

## z-VAD-fmk
T98G glioblastoma cells [1]; PME-1 siRNA plus STS, pan-caspase inhibitor 30 μM throughout the experiment
  effect on PME-1 siRNA and STS mediated apoptosis (nuclear fragmentation): complete reversal

## C=C1[C@@H](O)[C@@H]2O[C@]3(CC[C@H](/C=C/[C@@H](C)[C@@H]4CC(C)=C[C@@]5(O[C@H](C[C@@](C)(O)C(=O)O)CC[C@H]5O)O4)O3)CC[C@H]2O[C@@H]1[C@@H](O)C[C@H](C)[C@H]1O[C@@]2(CCCCO2)CC[C@H]1C [okadaic acid]
T98G glioblastoma cells [1]; PP2A inhibitor pre-treatment 24 hrs prior STS treatment
  effect on PME-1 siRNA and STS mediated apoptosis (nuclear fragmentation): sufficient to rescue cells

## CO[C@@H]1[C@H](N(C)C(=O)c2ccccc2)C[C@H]2O[C@]1(C)n1c3ccccc3c3c4c(c5c6ccccc6n2c5c31)C(=O)NC4 [PKC412, [9S-(9α, 10β,11β,13α)]-N-(2,3,10,11,12,13-Hexahydro-10-methoxy-9-methyl-1-oxo-9,13-epoxy-1H,9H-diindolo[1,2,3-gh:3′,2′,1′-lm]pyrrolo[3,4-j][1,7]benzodiazonin-11-yl)-N-methyl benzamide]
T98G glioblastoma cells [1]
  apoptotic nuclear fragmentation (sub-G0/G1 fraction): levels even higher than STS itself
[2]
  cell killing activity, colony formation: enhanced the cell killing activity
U87MG glioblastoma cells
  cell killing activity, colony formation: enhanced the cell killing activity

## TRAIL
T98G glioblastoma cells [1]
  apoptotic nuclear fragmentation (sub-G0/G1 fraction): did not show the same trend

## CC1CNCCN1S(=O)(=O)c1cccc2cnccc12 (centres unmarked) [H7]
T98G glioblastoma cells [1]
  apoptotic nuclear fragmentation (sub-G0/G1 fraction): moderate

## C[C@]12O[C@H](C[C@]1(O)CO)n1c3ccccc3c3c4c(c5c6ccccc6n2c5c31)CNC4=O [CEP-701, (9S,10S,12R)-2,3,9,10,11,12-Hexahydro-10-hydroxy-10-(hydroxymethyl)-9-methyl-9,12-epoxy-1H-diindolo[1,2,3-fg:3′,2′,1′-kl]pyrrolo[3,4-i][1,6]benzo di-azocin-1-one]
T98G glioblastoma cells [1]
  apoptotic nuclear fragmentation (sub-G0/G1 fraction): levels even higher than STS itself

## O=C1NC(=O)c2c1c1c3ccccc3n3c1c1c2c2ccccc2n1C1CCC3O1 [SB 218078, 9,10,11,12-Tetrahydro-9,12-epoxy-1H-diindolo[1,2,3-fg:3′,2′,1′-kl]pyrrolo[3,4-i][1,6]benzodi-azocine-1,3(2H)-dione]
T98G glioblastoma cells [1]
  apoptotic nuclear fragmentation (sub-G0/G1 fraction): moderate levels of apoptosis at higher concentration

## PME-1 siRNA: PME-1 siRNA 5′-GGA AGU GAG UCU AUA AGC A-3′; SEQ ID NO:1 (GGAAGUGAGUCUAUAAGCA; listed as RNA, chemistry not given here)
T98G glioblastoma cells [3]; PME-1 siRNA alone
  cell viability (CTG): reduced cell viability by small fraction
[4]; PME-1 depletion alone
  increase of Caspase-3/7 activity: more than 2 fold

## CN[C@@H]1C[C@H]2O[C@@](C)([C@@H]1OC)n1c3ccccc3c3c4c(c5c6ccccc6n2c5c31)C(=O)NC4 [STS, [9S-(9α,10β,11β,13α)]-2,3,10,11,12,13-Hexa-hydro-10-methoxy-9-methyl-11-(methylamino)-9,13-epoxy-1H,9H-diindolo[1,2,3-gh:3′,2′,1′-lm]pyrrolo[3,4-j][1,7]benzo diazonin-1-one]
T98G glioblastoma cells [1]
  apoptotic nuclear fragmentation (sub-G0/G1 fraction): very high level of nuclear fragmentation; also recorded: induce apoptosis in a dose dependent manner; also recorded: highly sensitive to STS induced cell death even at lowest concentrations
T98G glioblastoma cells [1]; control (Scrambled siRNA transfected) T98G cells
  concentration at which drug alone started inducing cell death: higher than 50 nM
T98G glioblastoma cells [1]; untransfected T98G cells
  concentration at which limited cell death was observed with drug alone: higher than 30 nM
T98G glioblastoma cells [5]; [7]
  colony formation (colonogenic potential): almost complete loss of colonies
T98G glioblastoma cells [5]; [8]
  colony formation (colonogenic potential): did not respond well
[6]; [7]
  colony formation (colonogenic potential): almost complete loss of colonies
[6]; [8]
  colony formation (colonogenic potential): did not respond well
[2]
  cell killing activity, colony formation: enhanced the cell killing activity
U87MG glioblastoma cells
  cell killing activity, colony formation: enhanced the cell killing activity
T98G glioblastoma cells [3]; PME-1 siRNA plus STS treatment
  cell viability (CTG): drastic decrease in the cell viability
[4]; PME-1 depletion in combination with STS treatment
  increase of Caspase-3/7 activity: above 6 fold

## CN[C@@H]1C[C@H]2O[C@@](C)([C@@H]1OC)n1c3ccccc3c3c4c(c5c6ccccc6n2c5c31)C(=O)N[C@H]4O [UCN-01, (9S)-2,3,10,11,12,13-Hexahydro-3α-hydroxy-10α-methoxy-9-methyl-11α-methyl amino-9β,13β-epoxy-1H,9H-diindolo[1,2,3-gh:3′,2′,1′-lm]pyrrolo[3,4-j][1,7]benzo diazonin-1-one]
T98G glioblastoma cells [1]
  apoptotic nuclear fragmentation (sub-G0/G1 fraction): levels even higher than STS itself
